Experimental data published in US6706664B1, “Benzoxazole compounds, process for the preparation thereof and herbicides” (UBE Industries, Ltd., priority 1999, dated 2004).

Key:
Design in all cases: key: 0: normal development; 1: Less damaged; 2: Slightly damaged; 3: Moderately damaged; 4: Severely damaged; 5: All killed
[1] = tested on: barnyardgrass; assay: Herbicidal test for paddy field; type: in vivo, Echinochloa crusgalli; conditions: paddy field pot, 500 g/ha dropwise at 1.5 leaf stage of barnyardgrass, 3 weeks, rank vs non-treated
Method in brief: (§1)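 Scores ran from 0 (normal development) to 5 (all killed) against untreated pots, judged after 3 weeks in a glasshouse averaging 25° C. Compound, as wettable powder diluted in water with 0.05% surfactant, was applied dropwise into 3 cm-deep paddy water at 500 g/ha. Application was at the 1.5-leaf stage of barnyardgrass.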

[2] = tested on: monochoria; assay: Herbicidal test for paddy field; type: in vivo, Monochoria vaginalis; conditions: paddy field pot, 500 g/ha dropwise at 1.5 leaf stage of barnyardgrass, 3 weeks, rank vs non-treated
Method in brief: as §1

[3] = tested on: Large crabgrass; assay: Soil treatment test for upland field; type: in vivo, Digitaria adscendens; conditions: 500 g/ha, glass house 25° C., 3 weeks
Method in brief: (§2)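 Herbicidal effect graded on a 0–5 scale (0 normal development, 5 all killed) after 3 weeks in a glasshouse at about 25° C. Compound applied as a soil-surface spray at 500 g/ha right after sowing into Ube alluvial soil; spray water contained 0.05% surfactant.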

[4] = tested on: barnyardgrass; assay: Soil treatment test for upland field; type: in vivo, Echinochloa crusgalli; conditions: 500 g/ha, glass house 25° C., 3 weeks
Method in brief: as §2

[5] = tested on: green foxtail; assay: Soil treatment test for upland field; type: in vivo, Setaria viridis; conditions: 500 g/ha, glass house 25° C., 3 weeks
Method in brief: as §2

[6] = tested on: blackgrass; assay: Soil treatment test for upland field; type: in vivo, Alopecurus aegualis; conditions: 500 g/ha, glass house 25° C., 3 weeks
Method in brief: as §2

[7] = tested on: annual bluegrass; assay: Soil treatment test for upland field; type: in vivo, Poa annua; conditions: 500 g/ha, glass house 25° C., 3 weeks
Method in brief: as §2

[8] = tested on: common lambsquartes; assay: Soil treatment test for upland field; type: in vivo, Chenopodium album; conditions: 500 g/ha, glass house 25° C., 3 weeks
Method in brief: as §2

[9] = tested on: livid amaranth; assay: Soil treatment test for upland field; type: in vivo, Amaranthus lividus; conditions: 500 g/ha, glass house 25° C., 3 weeks
Method in brief: as §2

[10] = tested on: velvetleaf; assay: Soil treatment test for upland field; type: in vivo, Abutilon theophrasti; conditions: 500 g/ha, glass house 25° C., 3 weeks
Method in brief: as §2

[11] = tested on: corn; assay: Foliar spread test for upland field; type: in vivo; conditions: foliar spray 500 ppm, 3 weeks, rank vs non-treated
Method in brief: (§3)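 Post-emergence foliar spray, 500 ppm (wettable powder in water + 0.5% surfactant), on ~2-week-old plants grown in volcanic ash soil; glasshouse, avg 25° C, 3 wk; visual damage score 0–5.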

[12] = tested on: solgum; assay: Foliar spread test for upland field; type: in vivo; conditions: foliar spray 500 ppm, 3 weeks, rank vs non-treated
Method in brief: as §3

[13] = tested on: green foxtail; assay: Foliar spread test for upland field; type: in vivo, Setaria viridis; conditions: foliar spray 500 ppm, 3 weeks, rank vs non-treated
Method in brief: (§4)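 Wettable powders at 500 ppm, with 0.5% surfactant, were sprayed uniformly over plants raised for roughly 2 weeks in glasshouse pots of volcanic ash soil. Herbicidal damage rated on a 0–5 scale (5 = all killed) after a further 3 weeks at an average 25 °C.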

[14] = tested on: blackgrass; assay: Foliar spread test for upland field; type: in vivo, Alopecurus aegualis; conditions: foliar spray 500 ppm, 3 weeks, rank vs non-treated
Method in brief: as §4

[15] = tested on: annual bluegrass; assay: Foliar spread test for upland field; type: in vivo, Poa annua; conditions: foliar spray 500 ppm, 3 weeks, rank vs non-treated
Method in brief: as §4

[16] = tested on: common lambsquartes; assay: Foliar spread test for upland field; type: in vivo, Chenopodium album; conditions: foliar spray 500 ppm, 3 weeks, rank vs non-treated
Method in brief: as §4

[17] = tested on: livid amaranth; assay: Foliar spread test for upland field; type: in vivo, Amaranthus lividus; conditions: foliar spray 500 ppm, 3 weeks, rank vs non-treated
Method in brief: as §4

[18] = tested on: velvetleaf; assay: Foliar spread test for upland field; type: in vivo, Abutilon theophrasti; conditions: foliar spray 500 ppm, 3 weeks, rank vs non-treated
Method in brief: as §4

Row | Compound | Effect Barnyardgrass [1] | Effect Monochoria [2] | Effects Large crabgrass [3] | Effects Barnyardgrass [4] | Effects Green foxtail [5] | Effects Blackgrass [6] | Effects Annual bluegrass [7] | Effects Common lambsquarters [8] | Effects Livid amaranth [9] | Effects Velvetleaf [10] | Effects Corn [11] | Effects Solgum [12] | Effects Green foxtail [13] | Effects Blackgrass [14] | Effects Annual bluegrass [15] | Effects Common lambsquarters [16] | Effects Livid amaranth [17] | Effects Velvetleaf [18]
1 | CCCC(Oc1cccc(C(F)(F)F)c1)c1nc2cc(C(F)(F)F)ccc2o1 (stereo not drawn) [Compound 200] | 2 | 5 | 5 | 5 | 5 | 4 | 5 | 4 | 5 | 5 | 2 | 2 | 5 | 2 | 4 | 4 | 4 | 2
2 | CCCC(Oc1cccc(C(F)(F)F)c1)c1nc2cc(C#N)c(C#N)cc2o1 (stereo not drawn) [Compound 317] | 3 | 5 | 5 | 3 | 5 | 5 | 5 | 5 | 5 | 5 | 2 | 1 | 5 | 2 | 5 | 5 | 5 | 3
3 | CCC(Oc1cccc(C(F)(F)F)c1)c1nc2cc(C#N)ccc2o1 (stereo not drawn) [Compound 190] | 5 | 5 | 5 | 5 | 5 | 3 | 5 | 4 | 5 | 3 | 2 | 3 | 5 | 3 | 4 | 4 | 5 | 4
4 | CCC(Oc1cccc(C(F)(F)F)c1)c1nc2cc(C#N)c(C#N)cc2o1 (stereo not drawn) [Compound 315] | 3 | 4 | 5 | 4 | 5 | 5 | 5 | 4 | 5 | 5 | 1 | 2 | 5 | 2 | 2 | 5 | 5 | 4
5 | CCC(Oc1ccc(F)c(C(F)(F)F)c1)c1nc2cc(F)c(F)cc2o1 (stereo not drawn) [Compound 284] | 4 | 5 | 5 | 5 | 5 | 5 | 5 | 4 | 5 | 5 | 3 | 3 | 4 | 2 | 3 | 4 | 5 | 2
6 | CCCC(Oc1cccc(C(F)(F)F)c1)c1nc2cc(C#N)ccc2o1 (stereo not drawn) [Compound 192] | 5 | 5 | 5 | 3 | 5 | 5 | 5 | 5 | 5 | 5 | 2 | 2 | 5 | 2 | 4 | 4 | 4 | 3
7 | CCC(Oc1ccc(F)c(C(F)(F)F)c1)c1nc2cc(Br)ccc2o1 (stereo not drawn) [Compound 165] | 4 | 5 | 5 | 5 | 5 | 4 | 5 | 3 | 5 | 1 | 2 | 2 | 4 | 3 | 2 | 3 | 4 | 3
8 | CCCC(Oc1ccc(F)c(C(F)(F)F)c1)c1nc2cc(C#N)c(Cl)cc2o1 (stereo not drawn) [Compound 533] | 5 | 4 | 5 | 3 | 5 | 4 | 4 | 5 | 5 | 5 | 2 | 2 | 4 | 3 | 4 | 4 | 5 | 2
9 | CCC(Oc1cccc(C(F)(F)F)c1)c1nc2cc(Cl)ccc2o1 (stereo not drawn) [Compound 140] | 5 | 5 | 5 | 4 | 5 | 4 | 5 | 4 | 5 | 1 | 3 | 2 | 2 | 2 | 2 | 4 | 4 | 2
10 | CCCC(Oc1ccc(F)c(C(F)(F)F)c1)c1nc2cc(Cl)ccc2o1 (stereo not drawn) [Compound 141] | 5 | 5 | 5 | 3 | 5 | 5 | 5 | 5 | 5 | 5 | 2 | 1 | 4 | 4 | 4 | 4 | 4 | 4
